Values after ≈ are worked out from the molar mass of the structure shown. Where only a bound is given, the exact number is not on record here.

Data on 4 molecules can be found in article PMC11472313, “Development of Fragment-Based Inhibitors of the Bacterial Deacetylase LpxC with Low Nanomolar Activity” (Journal of Medicinal Chemistry, 2024).

One test deals with E. coli BL21(DE3). Conditions: cited from earlier work.
The target in a further test is T1, LasB (Pseudomonas aeruginosa, UniProt Q02RJ6).
T1 construct: The elastase LasB of P. aeruginosa is a secreted metalloprotease; endogenous in cells; host or cells: P. aeruginosa PA14 culture supernatant
T1 sequence (Q02RJ6 198-498): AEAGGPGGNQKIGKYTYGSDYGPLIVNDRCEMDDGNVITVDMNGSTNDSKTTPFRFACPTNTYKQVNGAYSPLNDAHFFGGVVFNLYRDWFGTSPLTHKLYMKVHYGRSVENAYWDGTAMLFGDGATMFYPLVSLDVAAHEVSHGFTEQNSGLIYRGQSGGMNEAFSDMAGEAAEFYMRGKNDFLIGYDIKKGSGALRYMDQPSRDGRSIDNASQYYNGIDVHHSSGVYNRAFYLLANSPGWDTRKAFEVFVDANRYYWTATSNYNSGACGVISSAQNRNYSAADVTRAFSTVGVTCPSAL
Conditions: cited from earlier work.

Test [1] deals with T2, E. coli LpxC C63A (Escherichia coli, UniProt P0A725, C63A).
T2 construct: made in house; host or cells: E. coli BL21(DE3)
T2 sequence (P0A725 whole entry C63A): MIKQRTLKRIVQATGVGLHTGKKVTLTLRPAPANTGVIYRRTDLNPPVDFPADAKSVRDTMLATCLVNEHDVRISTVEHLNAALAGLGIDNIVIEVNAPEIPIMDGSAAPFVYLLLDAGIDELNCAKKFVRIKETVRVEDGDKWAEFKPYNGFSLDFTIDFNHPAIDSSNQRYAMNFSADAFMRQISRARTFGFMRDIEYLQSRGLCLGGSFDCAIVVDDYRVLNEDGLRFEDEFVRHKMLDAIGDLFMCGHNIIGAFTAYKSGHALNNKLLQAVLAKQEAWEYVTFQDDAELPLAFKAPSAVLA
Conditions: versus (2R,3S)-10; cited from earlier work.

Test [2] deals with T2, E. coli LpxC C63A. The experiment in a line: LC–MS/MS-based determination of KM. The format is biochemical. Conditions: substrate 1, LC–MS/MS-based assay. As to the method: In order to determine the inhibitory activities of the compounds of interest toward E. coli LpxC, a fluorescence-based enzyme assay was deployed, in which the formed deacetylated natural product UDP-3-O-[(R)-3-hydroxymyristoyl]glucosamine (2) is transformed into a fluorescent isoindole with o-phthaldialdehyde and 2-mercaptoethanol.[48],[49] […] The KM of E. coli LpxC C63A was determined experimentally using a mass spectrometry-based LpxC assay (Figure S8, Supporting Information, vide infra).
Generally, the LC–MS/MS-based method represents an alternative to analyze compounds, which cannot be tested in the fluorescence-based assay, like primary amines and intrinsically fluorescent compounds. Additionally, it offers the advantage that lower substrate concentrations (10%) are used in the established protocol compared to the fluorescence-based assay, in which the detection of respectively low product concentrations would be difficult to detect due to inherently high background fluorescence. […] Additionally, the KM of E. coli LpxC C63A could be determined using the LC–MS/MS-based method (Figure S8, Supporting Information, vide supra). […]
The values of KM and vmax for the E. coli LpxC C63A- as well as the P. aeruginosa LpxC-catalyzed deacetylation of UDP-3-O-[(R)-3-hydroxymyristoyl]-N-acetylglucosamine (1) were determined using the conditions of the established LC-MS/MS-based enzyme assay. […]

In a further test the target is T3, P. aeruginosa LpxC (Pseudomonas aeruginosa, UniProt P47205).
T3 construct: made in house; host or cells: E. coli BL21(DE3)
T3 sequence (P47205 whole entry): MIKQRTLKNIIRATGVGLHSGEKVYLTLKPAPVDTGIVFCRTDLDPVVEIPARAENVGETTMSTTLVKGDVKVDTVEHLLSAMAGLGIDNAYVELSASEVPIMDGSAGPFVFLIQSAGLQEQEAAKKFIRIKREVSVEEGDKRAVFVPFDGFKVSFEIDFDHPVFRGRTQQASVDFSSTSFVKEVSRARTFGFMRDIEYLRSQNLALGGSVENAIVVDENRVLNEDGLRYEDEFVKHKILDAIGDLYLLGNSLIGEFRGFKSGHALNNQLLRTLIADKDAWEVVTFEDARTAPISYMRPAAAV
In words: LC–MS/MS-based determination of KM. The format is biochemical. As to conditions: read-out: KM of the P. aeruginosa LpxC-catalyzed deacetylation; substrate 1, LC–MS/MS-based assay. From the text: Generally, the LC–MS/MS-based method represents an alternative to analyze compounds, which cannot be tested in the fluorescence-based assay, like primary amines and intrinsically fluorescent compounds. Additionally, it offers the advantage that lower substrate concentrations (10%) are used in the established protocol compared to the fluorescence-based assay, in which the detection of respectively low product concentrations would be difficult to detect due to inherently high background fluorescence. […] Additionally, the KM of E. coli LpxC C63A could be determined using the LC–MS/MS-based method (Figure S8, Supporting Information, vide supra).
Determination of enzymatic parameters
The values of KM and vmax for the E. coli LpxC C63A- as well as the P. aeruginosa LpxC-catalyzed deacetylation of UDP-3-O-[(R)-3-hydroxymyristoyl]-N-acetylglucosamine (1) were determined using the conditions of the established LC-MS/MS-based enzyme assay.
The wells in a black, non-binding, 96-well fluorescence microplate (Greiner Bio One, Frickenhausen) were filled with 93 µL of varying concentrations of UDP-3-O-[(R)-3-hydroxymyristoyl]-N-acetylglucosamine (26.9 µM, 10.8 µM, 2.69 µM, 1.08 µM, 0.538 µM, 0.269 µM) in assay buffer (40 mM sodium morpholinoethanesulfonic acid (pH = 6.0), 80 µM dithiothreitol, 0.02% Brij 35). […]

On to `O=C(NO)[C@H](OCc1ccc(C#Cc2ccc(CN3CCOCC3)cc2)cc1)[C@@H](O)COCc1ccccc1` [(2R,3S)-10], for which, in the test with E. coli BL21(DE3), the “MIC E. coli BL21(DE3)” value is >64 µg/mL. In addition, the “LasB Inhibition at 20 μM” value at LasB is “n.i. (n.i.: <10% inhibition)”.

On to `O=C(NO)[C@@H](OCc1ccc(C#Cc2ccc(CN3CCOCC3)cc2)cc1)[C@@H](O)COCc1ccccc1` [(2S,3S)-10], for which the “fold higher LpxC inhibitory activity than its (2R)-configured diastereomer” value on E. coli LpxC C63A [1] is “about 3 fold”. Further, in the test with E. coli BL21(DE3), the “MIC E. coli BL21(DE3)” value is 4.0 µg/mL (≈ 7.54 µM).

For the molecule `Cc1noc(C)c1COC[C@H](O)[C@H](OCc1ccc(C#Cc2ccc(CN3CCOCC3)cc2)cc1)C(=O)NO` [(2S,3S)-40], the “LasB Inhibition at 20 μM” value at LasB was “n.i. (n.i.: <10% inhibition)”.

In the case of `CCCCCCCCCCCC(O)CC(=O)OC1C(O)C(CO)OC(OP(=O)(O)OP(=O)(O)OCC2OC(n3ccc(=O)[nH]c3=O)C(O)C2O)C1NC(C)=O` [compound 1, UDP-3-O-[(R)-3-hydroxymyristoyl]-N-acetylglucosamine], the Km at E. coli LpxC C63A [2] is 3.6 µM; at P. aeruginosa LpxC, 4.7 µM.
